What all share (assay type): cell-based, Chinese Hamster
In assay [1] the test system is mAb2-expressing CHO-K1 cells. The experiment in a line: Fed-batch production of mAb2-expressing CHO cell line with PDGFRa inhibitor and/or insulin. An excerpt:
(§1) FIGS. 3A-3D. PDGFRa signaling is important for cell growth, e.g., CHO cell growth, and growth factor signaling is intact after PDGFRa inhibition. FIG. 3A is a schematic of PDGFRa and insulin receptor (IR) signaling upstream of protein synthesis, cell cycle progression and cell proliferation. Bolder arrows indicate stronger activation by respective receptors. FIG. 3B depicts empty CHO-K1 host cells VCC and % viability after 4 days in the presence or absence of PDGFRa inhibitor and/or insulin in the seed train media. FIG. 3C depicts western blot analysis of empty host CHO-K1 cells (of FIG. 3B) after 4 days in the presence or absence of PDGFRa inhibitor and/or insulin in the seed train media. FIG. 3D depicts Day 12 relative IVCC, % viability, relative titer and relative Qp of mAb2-expressing CHO-K 1 cells in the presence of PDGFRa inhibitor and/or insulin during production.
Fed-batch production cultures were performed with proprietary chemically defined medium using different vessels (tube-spin and AMBR15) along with bolus feeds on Days 3, 7 and 10 as previously mentioned (Hsu, Aulakh, Traul, & Yuk, 2012). […] Titers were determined using Protein-A affinity chromatography with UV detection. Percent viability and viable cell count were determined using a Vi-Cell XR instrument (Beckman Coulter Item #383721). […]

Assay [2] has as its system empty host CHO-K1 cells. As to the kind of experiment: Growth of empty host CHO-K1 cells in seed train media with PDGFRa inhibitor and/or insulin.
Description: as §1
FIGS. 4A-4D. FIG. 4A depicts empty host CHO-K1 cells viable cell count (VCC) and % viability after 4 days in increasing PDGFRa inhibitor concentrations in the seed train media. FIG. 4B depicts western blot analysis of empty host CHO-K1 cells after 4 days in increasing PDGFRa inhibitor concentrations in the seed train media. FIG. 4C depicts western blot analysis mAb2-expressing CHO-K 1 cells in production in the presence or absence of PERK inhibitor at 10 μM concentration. […]

Assay [3] has as its system PDGFRa. As to the kind of experiment: Chemical UPR induction in CHO cultures, PDGFRa western blot and qPCR. To be noted: mAb1-expressing CHO DG44 and CHO-K1 seed train cultures; optimal pH. An excerpt: FIGS. 1A-1G. […] FIG. 1C depicts western blot analysis of two mAb1-expressing host cell lines, CHO DG44 and CHO-K1, treated with chemical UPR inducers: tunicamycin and DTT. FIG. 1D depicts qPCR analysis of PDGFRa mRNA levels in both host cell lines of FIG. 1C treated with tunicamycin and DTT. FIG. 1E depicts western blot analysis of mAb1-expressing CHO-K1 cells treated with tunicamycin to activate the UPR in the presence of UPR pathway-specific inhibitors. […] FIG. 1F depicts qPCR analysis of PDGFRa mRNA levels in CHO-K1 cells treated with tunicamycin in the presence of UPR pathway-specific inhibitors. FIG. 1G depicts western blot analysis of WT and PERK KO empty host CHO-K1 (Clone 9) cell lines treated with tunicamycin and PERK inhibitor.
FIGS. 2A-2E. FIG. 2A depicts western blot analysis of mAb1-expressing CHO-K1 cells treated with thapsigargin to activate the UPR in the presence of different UPR pathway-specific inhibitors. […]
An interesting phenomenon was previously described where activation of UPR in seed train culture, triggered by lower pH conditions in a particular CHO cell line, negatively affected culture growth in production media at target pH (Tung, et al., 2018). When exposed to low pH conditions, high intracellular BiP levels were detected in this cell line that correlated to low growth profiles during production and poor bioprocess outcomes (Tung, et al., 2018). […]
(Immunoblotting shows a protein as a band on a membrane.)

With `COc1cc2ncc(-c3ccccc3)nc2cc1OC` [PDGFRa inhibitor, AG-1296], the “cell growth and cell viability in fed-batch production” value in assay [1] (PDGFRa inhibition on Day 3) is “significantly decreased cell growth, without affecting cell viability”. For the same molecule, the “reduction of cell growth” value in assay [2] (20 μM, 4 days) is reported as “approximately 50%”. Regarding Tunicamycin, the “fully functional PDGFRa levels (protein and mRNA)” value in assay [3] is “reduced at both the protein and mRNA levels”.

With insulin, in assay [1] (insulin on Day 3, PDGFRa inhibited), the “cell growth inhibition in production culture after addition of insulin” value is “partially rescued the observed cell growth inhibition”. In assay [2], the “cellular growth of cultures treated with the PDGFRa inhibitor after addition of insulin” value was “partially rescued cellular growth”.

The values are drawn from patent publication US20240190944A1, “MODIFIED CELLS FOR THE PRODUCTION OF A RECOMBINANT PRODUCT OF INTEREST” (Genentech, Inc., priority 2021, published 2024).
